Assay results published in patent US10849881B2, “Octahydro-cyclobuta[1,2-c;3,4-c′]dipyrrol-2-yl” (Hoffmann-La Roche Inc., priority 2013, dated 2020).

Each compound was assayed against ATX (human His-tagged) (Homo sapiens (Human), UniProt Q13822) (assay: Human ATX enzyme inhibition assay (fluorescence quenching, MR121 substrate)). Conditions: 30 nM ATX, 1 μM MR121 substrate, 30° C., pH 8.0.
Assay type: biochemical
Experimental: Human ATX Enzyme Inhibition Assay
ATX inhibition was measured by a fluorescence quenching assay using a specifically labeled substrate analogue (MR121 substrate). To obtain this MR121 substrate, BOC and TBS protected 6-amino-hexanoic acid (R)-3-({2-[3-(2-{2-[2-(2-amino-ethoxy)-ethoxy]-ethoxy}-ethoxy)-propionylamino]-ethoxy}-hydroxy-phosphoryloxy)-2-hydroxy-propyl ester (Ferguson et al., Org Lett 2006, 8 (10), 2023) was labeled with MR121 fluorophore (CAS 185308-24-1, 1-(3-carboxypropyl)-11-ethyl-1,2,3,4,8,9,10,11-octahydro-dipyrido[3,2-b:2′,3′-i]phenoxazin-13-ium) on the free amine of the ethanolamine side and then, after deprotection, subsequently with tryptophan on the side of the aminohexanoic acid.
Assay working solutions were made as follows:
Assay buffer (50 mM Tris-HCl, 140 mM NaCl, 5 mM KCl, 1 mM CaCl2, 1 mM MgCl2, 0.01% Triton-X-100, pH 8.0;
ATX solution: ATX (human His-tagged) stock solution (1.08 mg/mL in 20 mM bicine, pH 8.5, 0.15 M NaCl, 10% glycerol, 0.3% CHAPS, 0.02% NaN3), diluted to 1.4-2.5× final concentration in assay buffer;
MR121 substrate solution: MR121 substrate stock solution (800 μM MR121 substrate in DMSO), diluted to 2-5× final concentration in assay buffer.
Test compounds (10 mM stock in DMSO, 8 μL) were obtained in 384 well sample plates (Corning Costar #3655) and diluted with 8 μL DMSO. Row-wise serial dilutions were made by transferring 8 μL cpd solution to the next row up to row O. The compound and control solutions were mixed five times and 2 μL were transferred to 384 well assay plates (Corning Costar #3702). Then, 15 μL of 41.7 nM ATX solution was added (30 nM final concentration), mixed five times and then incubated for 15 minutes at 30° C. 10 μL of MR121 substrate solution was added (1 μM final concentration), mixed 30 times and then incubated for 15 minutes at 30′C.

Row | Structure (SMILES) | IC50 [nM]
1 | COc1cc2ccccc2cc1C(=O)N1C[C@@H]2[C@H]3CN(C(=O)c4ccc5[nH]nnc5c4)C[C@H]3[C@@H]2C1 [Example 1.021, [(3aS,3bS,6aR,6bR)-5-(1H-benzotriazole-5-carbonyl)-octahydro-cyclobuta[1,2-c;3,4-c′]dipyrrol-2-yl]-(3-methoxy-naphthalen-2-yl)-methanone] | 265
2 | O=C(c1ccc2[nH]nnc2c1)N1C[C@@H]2[C@H](C1)[C@H]1CN(C(=O)c3cc4ccccc4[nH]3)C[C@@H]21 [Example 1.023, [(3aR,3bS,6aR,6bS)-5-(1H-benzotriazole-5-carbonyl)-octahydro-cyclobuta[1,2-c;3,4-c′]dipyrrol-2-yl]-(1H-indol-2-yl)-methanone] | 1470
3 | Cn1c(C(=O)N2C[C@@H]3[C@H]4CN(C(=O)c5ccc6[nH]nnc6c5)C[C@H]4[C@@H]3C2)cc2ccccc21 [Example 1.024, [(3aR,3bS,6aR,6bS)-5-(1H-benzotriazole-5-carbonyl)-octahydro-cyclobuta[1,2-c;3,4-c′]dipyrrol-2-yl]-(1-methyl-1H-indol-2-yl)-methanone] | 377
4 | N#Cc1ccc2[nH]c(C(=O)N3C[C@@H]4[C@H]5CN(C(=O)c6ccc7[nH]nnc7c6)C[C@H]5[C@@H]4C3)cc2c1 [Example 1.027, 2-[(3aR,3bS,6aR,6bS)-5-(1H-benzotriazole-5-carbonyl)-octahydro-cyclobuta[1,2-c;3,4-c′]dipyrrole-2-carbonyl]-1H-indole-5-carbonitrile] | 828
5 | COc1cccc(C(=O)N2C[C@@H]3[C@H](C2)[C@H]2CN(C(=O)c4ccc5[nH]nnc5c4)C[C@@H]32)c1 [Example 1.028, [(3aS,3bS,6aR,6bR)-5-(1H-benzotriazole-5-carbonyl)-octahydro-cyclobuta[1,2-c;3,4-c′]dipyrrol-2-yl]-(3-methoxy-phenyl)-methanone] | 2830
6 | Cn1c(C(=O)N2C[C@@H]3[C@H]4CN(C(=O)c5ccc6[nH]nnc6c5)C[C@H]4[C@@H]3C2)cc2ccc(Cl)cc21 [Example 1.034, [(3aR,3bS,6aR,6bS)-5-(1H-benzotriazole-5-carbonyl)-octahydro-cyclobuta[1,2-c;3,4-c′]dipyrrol-2-yl]-(6-chloro-1-methyl-1H-indol-2-yl)-methanone] | 489
7 | O=C(c1ccc2[nH]nnc2c1)N1C[C@@H]2[C@H](C1)[C@H]1CN(C(=O)c3ccc4ccccc4n3)C[C@@H]21 [Example 1.038, [(3aR,3bS,6aR,6bS)-5-(1H-benzotriazole-5-carbonyl)-octahydro-cyclobuta[1,2-c;3,4-c′]dipyrrol-2-yl]-quinolin-2-yl-methanone] | 687
8 | O=C(c1ccc2[nH]nnc2c1)N1C[C@@H]2[C@H](C1)[C@H]1CN(C(=O)c3cc4ccccc4cn3)C[C@@H]21 [Example 1.039, [(3aR,3bS,6aR,6bS)-5-(1H-benzotriazole-5-carbonyl)-octahydro-cyclobuta[1,2-c;3,4-c′]dipyrrol-2-yl]-isoquinolin-3-yl-methanone] | 3330
9 | O=C(c1ccc2[nH]nnc2c1)N1C[C@@H]2[C@H](C1)[C@H]1CN(C(=O)c3ccc4cc[nH]c4c3)C[C@@H]21 [Example 1.040, [(3aS,3bS,6aR,6bR)-5-(1H-benzotriazole-5-carbonyl)-octahydro-cyclobuta[1,2-c;3,4-c′]dipyrrol-2-yl]-(1H-indol-6-yl)-methanone] | 8670

Stronger by IC50, values ahead:

Row | IC50 [nM] | Structure (SMILES)
10 | 11.5 | O=C(c1cc2cc(OC(F)(F)F)ccc2[nH]1)N1C[C@@H]2[C@H](C1)[C@H]1CN(C(=O)[C@@H]3CCc4[nH]nnc4C3)C[C@@H]21 [Example 1.019, [(3aR,3bS,6aR,6bS)-5-((R)-4,5,6,7-tetrahydro-1H-benzotriazole-5-carbonyl)-octahydro-cyclobuta[1,2-c;3,4-c′]dipyrrol-2-yl]-(5-trifluoromethoxy-1H-indol-2-yl)-methanone]
11 | 6 | O=C(c1cc2ccc(OC(F)(F)F)cc2[nH]1)N1C[C@@H]2[C@H](C1)[C@H]1CN(C(=O)[C@@H]3CCc4[nH]nnc4C3)C[C@@H]21 [Example 1.020, [(3aR,3bS,6aR,6bS)-5-((R)-4,5,6,7-tetrahydro-1H-benzotriazole-5-carbonyl)-octahydro-cyclobuta[1,2-c;3,4-c′]dipyrrol-2-yl]-(6-trifluoromethoxy-1H-indol-2-yl)-methanone]
12 | 155 | COc1c(C(=O)N2C[C@@H]3[C@H]4CN(C(=O)c5ccc6[nH]nnc6c5)C[C@H]4[C@@H]3C2)ccc2ccccc12 [Example 1.022, [(3aS,3bS,6aR,6bR)-5-(1H-benzotriazole-5-carbonyl)-octahydro-cyclobuta[1,2-c;3,4-c′]dipyrrol-2-yl]-(1-methoxy-naphthalen-2-yl)-methanone]
13 | 8.5 | O=C(c1cc(OCC2CC2)c2ccccc2c1)N1C[C@@H]2[C@H](C1)[C@H]1CN(C(=O)c3ccc4[nH]nnc4c3)C[C@@H]21 [Example 1.025, [(3aS,3bS,6aR,6bR)-5-(1H-benzotriazole-5-carbonyl)-octahydro-cyclobuta[1,2-c;3,4-c′]dipyrrol-2-yl]-(4-cyclopropylmethoxy-naphthalen-2-yl)-methanone]
14 | 11.5 | COc1cc(C(=O)N2C[C@@H]3[C@H](C2)[C@H]2CN(C(=O)c4ccc5[nH]nnc5c4)C[C@@H]32)cc2ccccc12 [Example 1.026, [(3aS,3bS,6aR,6bR)-5-(1H-benzotriazole-5-carbonyl)-octahydro-cyclobuta[1,2-c;3,4-c′]dipyrrol-2-yl]-(4-methoxy-naphthalen-2-yl)-methanone]
15 | 70 | COc1cc(C(=O)N2C[C@@H]3[C@H]4CN(C(=O)c5ccc6[nH]nnc6c5)C[C@H]4[C@@H]3C2)nc2ccccc12 [Example 1.029, [(3aR,3bS,6aR,6bS)-5-(1H-benzotriazole-5-carbonyl)-octahydro-cyclobuta[1,2-c;3,4-c′]dipyrrol-2-yl]-(4-methoxy-quinolin-2-yl)-methanone]
16 | 104 | Cc1oc(-c2ccc(Cl)cc2)nc1C(=O)N1C[C@@H]2[C@H]3CN(C(=O)c4ccc5[nH]nnc5c4)C[C@H]3[C@@H]2C1 [Example 1.030, [(3aR,3bS,6aR,6bS)-5-(1H-benzotriazole-5-carbonyl)-octahydro-cyclobuta[1,2-c;3,4-c′]dipyrrol-2-yl]-[2-(4-chloro-phenyl)-5-methyl-oxazol-4-yl]-methanone]
17 | 224 | O=C(c1ccc2[nH]nnc2c1)N1C[C@@H]2[C@H](C1)[C@H]1CN(C(=O)C3CCc4ccccc4C3)C[C@@H]21 (stereo partly drawn) [Example 1.031, [(3aS,3bR,6aS,6bR)-5-(1H-benzotriazole-5-carbonyl)-octahydro-cyclobuta[1,2-c;3,4-c′]dipyrrol-2-yl]-(1,2,3,4-tetrahydro-naphthalen-2-yl)-methanone]
18 | 13 | Cn1c(C(=O)N2C[C@@H]3[C@H]4CN(C(=O)c5ccc6[nH]nnc6c5)C[C@H]4[C@@H]3C2)cc2cc(OC(F)(F)F)ccc21 [Example 1.032, [(3aR,3bS,6aR,6bS)-5-(1H-benzotriazole-5-carbonyl)-octahydro-cyclobuta[1,2-c;3,4-c′]dipyrrol-2-yl]-(1-methyl-5-trifluoromethoxy-1H-indol-2-yl)-methanone]
19 | 104 | O=C(c1ccc2[nH]nnc2c1)N1C[C@@H]2[C@H](C1)[C@H]1CN(C(=O)c3cc4ccc(Cl)cc4[nH]3)C[C@@H]21 [Example 1.033, [(3aR,3bS,6aR,6bS)-5-(1H-benzotriazole-5-carbonyl)-octahydro-cyclobuta[1,2-c;3,4-c′]dipyrrol-2-yl]-(6-chloro-1H-indol-2-yl)-methanone]
20 | 243 | Cc1ccc2cc(C(=O)N3C[C@@H]4[C@H]5CN(C(=O)c6ccc7[nH]nnc7c6)C[C@H]5[C@@H]4C3)[nH]c2c1 [Example 1.035, [(3aR,3bS,6aR,6bS)-5-(1H-benzotriazole-5-carbonyl)-octahydro-cyclobuta[1,2-c;3,4-c′]dipyrrol-2-yl]-(6-methyl-1H-indol-2-yl)-methanone]
21 | 130 | N#CCn1c(C(=O)N2C[C@@H]3[C@H]4CN(C(=O)c5ccc6[nH]nnc6c5)C[C@H]4[C@@H]3C2)cc2ccccc21 [Example 1.036, {2-[(3aR,3bS,6aR,6bS)-5-(1H-benzotriazole-5-carbonyl)-octahydro-cyclobuta[1,2-c;3,4-c′]dipyrrole-2-carbonyl]-indol-1-yl}-acetonitrile]
22 | 159 | CC(C)Cn1c(C(=O)N2C[C@@H]3[C@H]4CN(C(=O)c5ccc6[nH]nnc6c5)C[C@H]4[C@@H]3C2)cc2ccccc21 [Example 1.037, [(3aR,3bS,6aR,6bS)-5-(1H-benzotriazole-5-carbonyl)-octahydro-cyclobuta[1,2-c;3,4-c′]dipyrrol-2-yl]-(1-isobutyl-1H-indol-2-yl)-methanone]
